Entries after “also recorded” stand apart in the source; their conditions may differ. Read-outs that look alike come from different tables or passages of the source.
Columns and labels:
Type in all cases: binding
[1] = test system: HCoV-OC43 gRNA and sgRNA; conditions: for target (unweighted spectral count): OC43 Probe II, infected cells; for target (unweighted spectral count) / target (unweighted spectral count, OC43 Probe II capture): tested against no-probe control; for target (unweighted spectral count, OC43 Probe II) / background (unweighted spectral count, no-probe control): type n_48_v, 48 hpi; for target (unweighted spectral count, OC43 Probe II): OC43 Probe II capture on infected cells; for background (unweighted spectral count, no-probe control): no-probe control on infected cells; for target (spectral count) / background (spectral count): type s_36_m, Probe II; for target (spectral count): HCoV-OC43-infected HCT-8 cells; for background (spectral count): uninfected-probe control; for target (unweighted spectral count, OC43 Probe II capture): FDR<10%
[2] = test system: SARS-CoV-2 gRNA and sgRNAs; conditions: for target (unweighted spectral count in RNP capture): Probe II capture, LC-MS/MS LFQ; for background (unweighted spectral count in control): no-probe control pull-down, used as background for Probe II; for target (unweighted spectral count of the protein in the RNP capture experiment): LC-MS/MS label-free quantification, probe pool not given; for back-ground (unweighted spectral count of the protein in the control experiment): protein background of the control (e.g. no-probe) experiment
[3] = test system: gRNA of HCoV-OC43; conditions: for target (spectral count, OC43 Probe I RNP capture) / background (spectral count, no-probe control): type n_48_v: 48 hours post-infection; for target (spectral count, OC43 Probe I RNP capture): infected cells, unweighted spectral count; for background (spectral count, no-probe control): no-probe control on infected cells; for target (spectral count) / background (spectral count): type g_36_m, 36 hpi, Probe I; for target (spectral count): HCoV-OC43-infected HCT-8 cells; for background (spectral count): uninfected-probe control
[4] = test system: SARS-CoV-2 gRNA; conditions: for target (unweighted spectral count of the protein in the RNP capture): LC-MS/MS, Probe I sample (first 199 lines of Table 2)

Substance | target (unweighted spectral count) ([1]; 24 hpi (type n_24_v)) | target (unweighted spectral count, OC43 Probe II) [1] | background (unweighted spectral count, no-probe control) [1] | target (spectral count) ([1]; 36 hpi) | background (spectral count) ([1]; 36 hpi) | target (unweighted spectral count in RNP capture) [2] | background (unweighted spectral count in control) [2] | target (spectral count, OC43 Probe I RNP capture) [3] | background (spectral count, no-probe control) [3] | target (unweighted spectral count of the protein in the RNP capture) ([4]; […]) | target (unweighted spectral count, OC43 Probe II capture) ([1]; 36 hpi, type n_36_v) | target (unweighted spectral count) ([1]; 12 hpi (type n_12_v)) | further results
DHX9: host protein, UniProt Q08211 | 13 | 31 | 4 | 27 | 3 | 11 | 1 | 24 | 4 | 15 |  |  | 
EIF4H: host protein, UniProt Q15056 |  | 9 | 1 | 8 | 1 | 31 | 1 | 9 | 1 | 25 | 8 |  | target (unweighted spectral count, OC43 Probe II capture) ([1]; 24 hpi, type n_24_v): 5; enrichment in SARS-CoV-2 Probe II RNP capture [2]: enriched; also recorded: found in the SARS-CoV-2 experiments; target (spectral count) [3]: 8; background (spectral count) [3]: 1; enrichment in SARS-CoV-2 Probe I RNP capture [4]: enriched; also recorded: found in the SARS-CoV-2 experiments
ELAVL1: host protein, UniProt Q15717 | 17 | 36 | 2 | 40 | 7 | 74 | 1 | 50 | 2 | 77 | 40 | 9 | enrichment in SARS-CoV-2 Probe II RNP capture [2]: found in the SARS-CoV-2 experiments; target (spectral count) [3]: 38; background (spectral count) [3]: 6; enrichment in SARS-CoV-2 Probe I RNP capture [4]: found in the SARS-CoV-2 experiments
FAM98A |  | 5 | 1 |  |  |  |  |  |  | 7 | 4 |  | 
FXR1 |  | 9 | 1 |  |  | 47 | 1 |  |  | 9 | 5 |  | 
G3BP1 |  |  |  |  |  | 54 | 1 |  |  | 55 | 8 | 5 | target (unweighted spectral count, OC43 Probe II capture) ([1]; 24 hpi, type n_24_v): 5
HNRNPAB |  | 27 | 2 |  |  | 44 | 1 | 37 | 2 | 44 | 21 | 10 | 
HNRNPU | 40 | 72 | 8 |  |  |  | 3 | 80 | 8 | 75 | 69 | 24 | 
ILF2: host protein, UniProt Q12905 | 7 | 17 | 3 |  |  |  |  | 14 | 3 | 12 | 15 | 4 | target (unweighted spectral count of the protein in the RNP capture experiment) [2]: 5; back-ground (unweighted spectral count of the protein in the control experiment) [2]: 1; target (spectral count) [3]: 16; background (spectral count) [3]: 2
MRPL28: host protein, UniProt Q13084 |  | 7 | 1 |  |  |  |  | 10 | 1 | 12 |  |  | target (spectral count) [3]: 13; background (spectral count) [3]: 1
NPM1 |  |  |  |  |  | 17 | 1 |  |  | 13 |  | 4 | target (unweighted spectral count, OC43 Probe II capture) ([1]; 24 hpi, type n_24_v): 7
PABPC1: host protein, UniProt P11940 | 18 | 26 | 2 | 29 | 3 |  |  | 23 | 2 | 29 | 23 | 7 | enrichment in SARS-CoV-2 Probe II RNP capture [2]: enriched; also recorded: found in the SARS-CoV-2 experiments; target (spectral count) [3]: 22; background (spectral count) [3]: 1; enrichment in SARS-CoV-2 Probe I RNP capture [4]: enriched; also recorded: found in the SARS-CoV-2 experiments
PCBP1 | 8 |  |  |  |  |  | 2 |  |  | 12 | 16 | 8 | 
PTBP1: host protein, UniProt P26599 | 33 | 43 | 5 | 61 | 12 |  |  |  |  | 108 | 61 | 17 | 
PTBP3: host protein, UniProt O95758 | 7 | 12 | 2 | 8 | 1 |  | 1 | 14 | 2 | 23 | 8 |  | enrichment in SARS-CoV-2 Probe II RNP capture [2]: found in the SARS-CoV-2 experiments; target (spectral count) [3]: 11; background (spectral count) [3]: 1; enrichment in SARS-CoV-2 Probe I RNP capture [4]: found in the SARS-CoV-2 experiments
RPL22L1 |  |  |  |  |  |  |  |  |  | 8 |  | 5 | 
SAFB2 |  | 7 | 1 |  |  |  |  | 9 | 1 | 8 | 5 |  | target (unweighted spectral count of the protein in the RNP capture experiment) [2]: 6; back-ground (unweighted spectral count of the protein in the control experiment) [2]: 1
TAF15: host protein, UniProt Q92804 |  | 8 | 1 | 8 | 1 | 8 | 1 | 11 | 1 |  |  | 5 | target (unweighted spectral count in RNP capture) ([4]; Probe I capture, […], LC-MS/MS LFQ): 5; background (unweighted spectral count in control) ([4]; no-probe control pull-down, used as background for Probe I): 1
TARDBP | 20 | 22 | 3 |  |  | 30 | 1 | 28 | 3 | 28 | 19 | 10 | 
VIM |  |  |  |  |  |  |  |  |  | 16 |  |  | target (unweighted spectral count of the protein in the RNP capture experiment) [2]: 17; back-ground (unweighted spectral count of the protein in the control experiment) [2]: 4
XRCC6 | 7 | 17 | 1 |  |  | 9 | 1 | 12 | 1 | 10 | 11 |  | 
